# Results: US12209081B2 (Katholieke Universiteit Leuven, priority 2020, dated 2025)
# pIC50: −log10 of the molar value.
# Biological target: mouse TRPM3α2 (mTRPM3) ion channel (Mus musculus (Mouse), UniProt J9SQF3)
# Test: TRPM3 ion channel driven Ca2+ uptake, Fluo-4 AM assay, mTRPM3alpha2 overexpressing flip-in HEK293 cells stimulated with pregnenolone sulfate
# Assay type: cell-based
# Conditions: PS (50 μM) stimulated, cpds. 667-751
# Outline: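 Flip-in HEK293 cells loaded with Fluo-4 AM were added to plates holding compound plus 50 μM pregnenolone sulfate in Ca2+-containing Krebs buffer. Fluorescence (ex 485/em 535 nm) read directly after cell addition; % inhibition relative to PS-stimulated vehicle and positive-control inhibitor.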
# Chain of mouse TRPM3α2 (mTRPM3) ion channel (J9SQF3 other isoform, or with tags, fused parts or gaps): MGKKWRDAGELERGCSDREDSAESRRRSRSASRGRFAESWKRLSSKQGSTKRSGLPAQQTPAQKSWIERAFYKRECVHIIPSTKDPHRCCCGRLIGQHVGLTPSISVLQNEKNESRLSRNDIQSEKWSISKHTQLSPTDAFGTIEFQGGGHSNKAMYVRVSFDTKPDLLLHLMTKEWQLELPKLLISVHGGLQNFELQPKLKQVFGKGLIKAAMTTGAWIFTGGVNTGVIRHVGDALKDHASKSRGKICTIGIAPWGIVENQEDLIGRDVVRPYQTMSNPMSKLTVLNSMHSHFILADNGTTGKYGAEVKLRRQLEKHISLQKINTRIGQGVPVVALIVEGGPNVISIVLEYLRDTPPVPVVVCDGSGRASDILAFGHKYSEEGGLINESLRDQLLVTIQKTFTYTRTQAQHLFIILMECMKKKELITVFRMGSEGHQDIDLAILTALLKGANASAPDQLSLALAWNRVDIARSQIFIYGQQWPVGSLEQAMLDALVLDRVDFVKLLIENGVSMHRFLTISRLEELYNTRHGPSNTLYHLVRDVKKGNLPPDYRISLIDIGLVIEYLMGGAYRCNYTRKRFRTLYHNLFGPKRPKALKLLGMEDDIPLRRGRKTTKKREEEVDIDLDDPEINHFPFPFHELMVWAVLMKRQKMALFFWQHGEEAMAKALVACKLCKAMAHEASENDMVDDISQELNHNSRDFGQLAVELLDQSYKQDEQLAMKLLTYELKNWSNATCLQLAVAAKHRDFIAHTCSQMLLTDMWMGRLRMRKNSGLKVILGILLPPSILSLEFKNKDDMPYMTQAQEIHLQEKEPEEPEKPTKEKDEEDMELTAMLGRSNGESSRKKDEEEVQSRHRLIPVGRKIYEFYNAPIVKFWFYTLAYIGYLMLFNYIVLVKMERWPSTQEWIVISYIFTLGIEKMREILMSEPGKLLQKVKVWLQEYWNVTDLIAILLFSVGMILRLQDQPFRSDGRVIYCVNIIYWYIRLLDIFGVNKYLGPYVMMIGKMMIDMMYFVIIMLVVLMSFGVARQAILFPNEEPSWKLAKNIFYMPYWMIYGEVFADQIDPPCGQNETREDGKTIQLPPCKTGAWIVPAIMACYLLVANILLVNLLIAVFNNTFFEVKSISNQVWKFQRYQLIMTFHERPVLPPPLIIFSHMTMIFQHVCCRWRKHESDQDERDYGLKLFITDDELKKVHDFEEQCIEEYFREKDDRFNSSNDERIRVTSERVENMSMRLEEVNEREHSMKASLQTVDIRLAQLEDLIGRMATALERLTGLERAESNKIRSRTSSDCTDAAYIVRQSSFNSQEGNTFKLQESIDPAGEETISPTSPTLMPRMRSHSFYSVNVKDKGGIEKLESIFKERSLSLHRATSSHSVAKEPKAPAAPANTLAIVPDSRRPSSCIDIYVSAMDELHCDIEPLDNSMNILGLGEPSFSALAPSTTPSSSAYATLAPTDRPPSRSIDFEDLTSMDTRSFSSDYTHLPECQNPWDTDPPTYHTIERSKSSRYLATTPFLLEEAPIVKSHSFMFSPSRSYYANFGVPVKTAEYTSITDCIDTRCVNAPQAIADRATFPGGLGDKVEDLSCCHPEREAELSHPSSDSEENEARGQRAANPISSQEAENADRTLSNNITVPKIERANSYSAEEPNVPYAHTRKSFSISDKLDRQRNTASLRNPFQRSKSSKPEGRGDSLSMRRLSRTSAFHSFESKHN
row,pIC50,Compound
1,> 6.00,"Cc1oc2ccc(OCc3cnc(C(C)C)s3)cc2c1C(=O)N[C@@H](CO)C(N)=O [compound 682, (S)-N-(1-Amino-3-hydroxy-1-oxopropan-2-yl)-5-((2-isopropylthiazol-5-yl)methoxy)-2-methylbenzofuran-3-carboxamide]"
2,> 6.00,"Cc1ncc(COc2ccc3oc(C)c(C(=O)NC4(C(F)F)CCC4)c3c2)s1 [compound 683, N-(1-(Difluoromethyl)cyclobutyl)-2-methyl-5-((2-methylthiazol-5-yl)methoxy)benzofuran-3-carboxamide]"
3,> 6.00,"Cc1cnc(COc2ccc3oc(C)c(C(=O)N[C@@H](CO)C(N)=O)c3c2)s1 [compound 684, (S)-N-(1-Amino-3-hydroxy-1-oxopropan-2-yl)-2-methyl-5-((5-methylthiazol-2-yl)methoxy)benzofuran-3-carboxamide]"
4,> 6.00,"Cc1oc2ccc(OCc3ccn(C)n3)cc2c1C(=O)N[C@@H](CO)C(N)=O [compound 686, (S)-N-(1-Amino-3-hydroxy-1-oxopropan-2-yl)-2-methyl-5-((1-methyl-1H-pyrazol-3-yl)methoxy)benzofuran-3-carboxamide]"
5,> 6.00,"Cc1oc2ccc(OCc3ccnn3CC(F)(F)F)cc2c1C(=O)N[C@@H](CO)C(N)=O [compound 688, (S)-N-(1-Amino-3-hydroxy-1-oxopropan-2-yl)-2-methyl-5-((1-(2,2,2-trifluoroethyl)-1H-pyrazol-5-yl)methoxy)benzofuran-3-carboxamide]"
6,> 6.00,"Cc1oc2ccc(OCc3ccnn3CC3CC3)cc2c1C(=O)N[C@@H](CO)C(N)=O [compound 690, (S)-N-(1-amino-3-hydroxy-1-oxopropan-2-yl)-5-((1-(cyclopropylmethyl)-1H-pyrazol-5-yl)methoxy)-2-methylbenzofuran-3-carboxamide]"
7,> 6.00,"Cc1oc2ccc(OCc3cn(C)nc3C(F)(F)F)cc2c1C(=O)N[C@@H](CO)C(N)=O [compound 692, (S)-N-(1-Amino-3-hydroxy-1-oxopropan-2-yl)-2-methyl-5-((1-methyl-3-(trifluoromethyl)-1H -pyrazol-4-yl)methoxy)benzofuran-3-carboxamide]"
8,> 6.00,"Cc1oc2ccc(OCc3scnc3C(F)(F)F)cc2c1C(=O)N[C@@H](CO)C(N)=O [compound 694, (S)-N-(1-Amino-3-hydroxy-1-oxopropan-2-yl)-2-methyl-5-((4-(trifluoromethyl)thiazol-5-yl)methoxy)benzofuran-3-carboxamide]"
9,> 6.00,"Cc1oc2ccc(OCc3nccs3)cc2c1C(=O)N[C@@H](CO)C(N)=O [compound 695, (S)-N-(1-Amino-3-hydroxy-1-oxopropan-2-yl)-2-methyl-5-(thiazol-2-ylmethoxy)benzofuran-3-carboxamide]"
10,> 6.00,"Cc1oc2ccc(OCc3ccc(F)cn3)cc2c1C(=O)N[C@H](C(N)=O)[C@@H](C)O [compound 696, N-((2S,3R)-1-amino-3-hydroxy-1-oxobutan-2-yl)-5-((5-fluoropyridin-2-yl)methoxy)-2-methylbenzofuran-3-carboxamide]"
11,> 6.00,"Cc1oc2ccc(OCc3cncs3)cc2c1C(=O)N[C@@H](CO)C(N)=O [compound 697, (S)-N-(1-Amino-3-hydroxy-1-oxopropan-2-yl)-2-methyl-5-(thiazol-5-ylmethoxy)benzofuran-3-carboxamide]"
12,> 6.00,"Cc1oc2ccc(OCc3cnn(C)c3)cc2c1C(=O)N[C@@H](CO)C(N)=O [compound 698, (S)-N-(1-Amino-3-hydroxy-1-oxopropan-2-yl)-2-methyl-5-((1-methyl-1H-pyrazol-4-yl)methoxy)benzofuran-3-carboxamide]"
13,> 6.00,"Cc1ccc(COc2ccc3oc(C)c(C(=O)N[C@@H](CO)C(N)=O)c3c2)nc1 [compound 700, (S)-N-(1-Amino-3-hydroxy-1-oxopropan-2-yl)-2-methyl-5-((5-methylpyridin-2-yl)methoxy)benzofuran-3-carboxamide]"
14,> 6.00,"Cc1oc2ccc(OCc3cccnc3C3CC3)cc2c1C(=O)N[C@@H](CO)C(N)=O [compound 702, (S)-N-(1-Amino-3-hydroxy-1-oxopropan-2-yl)-5-((2-cyclopropylpyridin-3-yl)methoxy)-2-methylbenzofuran-3-carboxamide]"
15,> 6.00,"Cc1oc2ccc(OCc3ncccc3C3CC3)cc2c1C(=O)N[C@@H](CO)C(N)=O [compound 704, (S)-N-(1-Amino-3-hydroxy-1-oxopropan-2-yl)-5-((3-cyclopropylpyridin-2-yl)methoxy)-2-methylbenzofuran-3-carboxamide]"
16,> 6.00,"Cc1oc2ccc(OCc3cccnc3N3CCC3)cc2c1C(=O)N[C@@H](CO)C(N)=O [compound 706, (S)-N-(1-amino-3-hydroxy-1-oxopropan-2-yl)-5-((2-(azetidin-1-yl)pyridin-3-yl)methoxy)-2-methylbenzofuran-3-carboxamide]"
17,> 6.00,"Cc1ncc(COc2ccc3oc(C)c(C(=O)N[C@@H](CO)C(N)=O)c3c2)cn1 [compound 708, (S)-N-(1-Amino-3-hydroxy-1-oxopropan-2-yl)-2-methyl-5-((2-methylpyrimidin-5-yl)methoxy)benzofuran-3-carboxamide]"

row,pIC50,Compound
1,> 6.00,"Cc1oc2ccc(OCc3cccnc3OC3CC3)cc2c1C(=O)N[C@@H](CO)C(N)=O [compound 710, (S)-N-(1-amino-3-hydroxy-1-oxopropan-2-yl)-5-((2-cyclopropoxypyridin-3-yl)methoxy)-2-methylbenzofuran-3-carboxamide]"
2,> 6.00,"Cc1oc2ccc(OCc3cccnc3OC3CC3)cc2c1C(=O)NC1(CO)CCOCC1 [compound 711, 5-((2-cyclopropoxypyridin-3-yl)methoxy)-N-(4-(hydroxymethyl)tetrahydro-2H-pyran-4-yl)-2-methylbenzofuran-3-carboxamide]"
3,> 6.00,"Cc1oc2ccc(OCc3ncccn3)cc2c1C(=O)N[C@@H](CO)C(N)=O [compound 712, (S)-N-(1-Amino-3-hydroxy-1-oxopropan-2-yl)-2-methyl-5-(pyrimidin-2-ylmethoxy)benzofuran-3-carboxamide]"
4,> 6.00,"Cc1oc2ccc(OCc3cnccn3)cc2c1C(=O)N[C@@H](CO)C(N)=O [compound 714, (S)-N-(1-Amino-3-hydroxy-1-oxopropan-2-yl)-2-methyl-5-(pyrazin-2-ylmethoxy)benzofuran-3-carboxamide]"
5,> 6.00,"COc1ncccc1COc1ccc2oc(C)c(C(=O)N[C@@H](CO)C(N)=O)c2c1 [compound 715, (S)-N-(1-amino-3-hydroxy-1-oxopropan-2-yl)-5-((2-methoxypyridin-3-yl)methoxy)-2-methylbenzofuran-3-carboxamide]"
6,> 6.00,"Cc1oc2ccc(OCc3ccncc3)cc2c1C(=O)N[C@@H](CO)C(N)=O [compound 716, (S)-N-(1-Amino-3-hydroxy-1-oxopropan-2-yl)-2-methyl-5-(pyridin-4-ylmethoxy)benzofuran-3-carboxamide]"
7,> 6.00,"Cc1oc2ccc(OCc3ncccc3C(F)F)cc2c1C(=O)NC1CCNCC1(F)F (stereo not shown) [compound 717, 5-((3-(Difluoromethyl)pyridin-2-yl)methoxy)-N-(3,3-difluoropiperidin-4-yl)-2-methylbenzofuran-3-carboxamide]"
8,> 6.00,"Cc1oc2ccc(OCc3ccccn3)cc2c1C(=O)N[C@H](C(N)=O)[C@@H](C)O [compound 718, N-((2S,3R)-1-amino-3-hydroxy-1-oxobutan-2-yl)-2-methyl-5-(pyridin-2-ylmethoxy)benzofuran-3-carboxamide]"
9,> 6.00,"Cc1ncsc1COc1ccc2oc(C)c(C(=O)NC3(C(F)F)CCC3)c2c1 [compound 721, N-(1-(Difluoromethyl)cyclobutyl)-2-methyl-5-((4-methylthiazol-5-yl)methoxy)benzofuran-3-carboxamide]"
10,> 6.00,"Cc1oc2ccc(OCc3ccc(F)cn3)cc2c1C(=O)N[C@@H](CO)C(N)=O [compound 741, (S)-N-(1-Amino-3-hydroxy-1-oxopropan-2-yl)-5-((5-fluoropyridin-2-yl)methoxy)-2-methylbenzofuran-3-carboxamide]"
11,> 6.00,"Cc1ncsc1COc1ccc2oc(C(F)F)c(C(=O)N[C@@H](CO)C(N)=O)c2c1 [compound 742, (S)-N-(1-amino-3-hydroxy-1-oxopropan-2-yl)-2-(difluoromethyl)-5-((4-methylthiazol-5-yl)methoxy)benzofuran-3-carboxamide]"
12,> 6.00,"Cc1ccc(COc2ccc3oc(C(F)F)c(C(=O)N[C@@H](CO)C(N)=O)c3c2)cn1 [compound 743, (S)-N-(1-Amino-3-hydroxy-1-oxopropan-2-yl)-2-(difluoromethyl)-5-((6-methylpyridin-3-yl)methoxy)benzofuran-3-carboxamide]"
13,> 6.00,NC(=O)[C@H](CO)NC(=O)c1c(C(F)F)oc2ccc(OCc3ccccn3)cc12 [compound 744]
14,> 6.00,"Cc1ncc(COc2ccc3oc(C(F)F)c(C(=O)N[C@@H](CO)C(N)=O)c3c2)s1 [compound 745, (S)-N-(1-amino-3-hydroxy-1-oxopropan-2-yl)-2-(difluoromethyl)-5-((2-methylthiazol-5-yl)methoxy)benzofuran-3-carboxamide]"
15,> 6.00,"Cc1ncc(COc2ccc3oc(C(F)F)c(C(=O)N[C@@H](CO)C(N)=O)c3c2)o1 [compound 746, (S)-N-(1-amino-3-hydroxy-1-oxopropan-2-yl)-2-(difluoromethyl)-5-((2-methyloxazol-5-yl)methoxy)benzofuran-3-carboxamide]"
16,> 6.00,"NC(=O)[C@H](CO)NC(=O)c1c(C2CC2)oc2ccc(OCc3ccccn3)cc12 [compound 747, (S)-N-(1-Amino-3-hydroxy-1-oxopropan-2-yl)-2-cyclopropyl-5-(pyridin-2-ylmethoxy)benzofuran-3-carboxamide]"
17,> 6.00,"Cc1ncsc1COc1ccc2oc(C3CC3)c(C(=O)N[C@@H](CO)C(N)=O)c2c1 [compound 748, (S)-N-(1-Amino-3-hydroxy-1-oxopropan-2-yl)-2-cyclopropyl-5-((4-methylthiazol-5-yl)methoxy)benzofuran-3-carboxamide]"
